According to patent US11697852B2, “Systems and methods for determining a treatment course of action” (The Regents of the University of Michigan, priority 2013, dated 2023):
Entries after “also recorded” stand apart in the source; their conditions may differ.

Columns and labels:
[1] = test system: ESR1 mutations p.Leu536Gln, p.Tyr537Ser, p.Asp538Gly, p.Tyr537Cys, p.Tyr537Asn; test: ERE-luciferase reporter assay, ESR1 LBD mutants; format: cell-based, human; conditions: for inhibition of the 5 LBD mutations of ESR1 (reporter activity): ERE-luciferase, increasing doses with 5 nM β-estradiol for 24 hrs (FIG. 4)
Procedure: (§1) cDNA for the wild type ESR1 was PCR amplified from a breast cell line MCF7 with the introduction of an N-terminal FLAG tag. cDNA encoding the relevant mutations of ESR1 were generated by site-directed mutagenesis (QuikChange, Agilent) and full-length constructs were fully sequenced. All the ESR1 variants were placed in the Lentivial vector pCDH (System Biosciences) for eukaryotic expression.
(§2) For cell transfection experiments, HEK-293T cells were plated at a density of 1−2×10^5 per well (24-well plates) in phenol red-free Dulbecco's modified Eagle's medium (DMEM) containing 10% fetal bovine serum (FBS) and antibiotics. Once cells attached, replaced medium with DMEM containing 10% charcoal-dextran treated FBS (HyClone) and cultured overnight. The next day, cells were transiently co-transfected with ESR1-expression plasmid at 50 ng/well and luciferase reporter constructs at 25 ng per well (SABiosciences) using the FuGene 6 reagent (Promega). The ER-responsive luciferase plasmid encoding the firefly luciferase reporter gene is driven by a minimal CMV promoter and tandem repeats of the estrogen transcriptional response element (ERE). A second plasmid constitutively expressing Renilla luciferase is served as an internal control for normalizing transfection efficiencies (Cignal ERE Reporter, SABiosciences). After transfection for 18 hrs, cells were serum-starved for a few hours before treatment with 13-estradiol or anti-estrogen drugs. Cells were harvested 18 hr post-treatment, and luciferase activity was measured using the Dual-Luciferase Reporter Assay System (Promega). IC50 values were computed using the GraphPad Prizm application to fit a four parameter doseresponse curve.
It was next assessed whether tumor types other than ER positive metastatic hormone-resistant breast cancer also acquire ligand binding mutations in ESR1. The Cancer Genome Atlas Project (TCGA), which has generated whole exome data on 27 tumor types across at least 4000 individual samples was utilized. […] Steroid hormone deprived cells were then exposed to β-estradiol for 24 hours and ER reporter levels assessed.

[2] = target: T1, wild type ESR1 (Homo sapiens, UniProt P03372); test: ERE-luciferase reporter assay, wild type ESR1; format: cell-based; conditions: HEK-293T cells co-transfected with ESR1 plasmid 50 ng and ERE-luciferase; in presence of β-estradiol (FIGS. 4, 8, 9, 10)
T1 construct: expressed in transfected cells; host or cells: HEK-293T
T1 sequence (P03372 1-595): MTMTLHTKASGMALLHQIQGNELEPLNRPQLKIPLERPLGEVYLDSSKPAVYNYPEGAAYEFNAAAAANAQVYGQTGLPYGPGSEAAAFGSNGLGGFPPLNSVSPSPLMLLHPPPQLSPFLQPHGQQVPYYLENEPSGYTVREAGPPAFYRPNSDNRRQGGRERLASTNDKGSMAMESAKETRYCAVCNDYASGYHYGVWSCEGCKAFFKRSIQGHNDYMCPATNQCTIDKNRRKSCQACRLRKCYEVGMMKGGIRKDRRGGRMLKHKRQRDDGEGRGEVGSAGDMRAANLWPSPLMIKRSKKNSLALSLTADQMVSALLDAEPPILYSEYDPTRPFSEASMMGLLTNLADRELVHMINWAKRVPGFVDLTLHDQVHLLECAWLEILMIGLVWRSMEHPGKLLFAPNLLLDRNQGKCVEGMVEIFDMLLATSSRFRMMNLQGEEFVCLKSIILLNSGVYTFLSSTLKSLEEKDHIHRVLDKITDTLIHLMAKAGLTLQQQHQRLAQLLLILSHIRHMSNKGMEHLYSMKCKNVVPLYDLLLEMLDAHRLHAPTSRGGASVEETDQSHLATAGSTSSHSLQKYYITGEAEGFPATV
Excerpt: as §1
as §2, with “Once” for “For cell transfection experiments, HEK-293T cells were plated at a density of 1−2×10^5 per well (24-well plates) in phenol red-free Dulbecco's modified Eagle's medium (DMEM) containing 10% fetal bovine serum (FBS) and antibiotics. Once”, “IC50 values were computed using the GraphPad Prizm application to fit a four parameter doseresponse curve.” left out

inhibition of wild-type ER reporter (transactivation) activity [2] | Compound | maximal inhibition for all the mutants tested ([1]; ERE-luciferase dose response in competition with 1 nM estradiol (FIGS. 8 and 9)) | inhibition of the 5 LBD mutations of ESR1 (reporter activity) [1]
– | C[C@]12CC[C@@H]3c4ccc(O)cc4C[C@@H](CCCCCCCCC[S+]([O-])CCCC(F)(F)C(F)(F)F)[C@H]3[C@@H]1CC[C@@H]2O (stereo partly shown) [fulvestrant, Fulvestrant] | greater maximal inhibition than 4-hydroxytamoxifen | in a dose-dependent fashion; also recorded: continue to be responsive
– | CC/C(=C(\c1ccccc1)c1ccc(OCCN(C)C)cc1)c1ccccc1 [tamoxifen] | – | in a dose-dependent fashion; also recorded: continue to be responsive
inhibited in a dose-dependent fashion | (Z)-4-Hydroxytamoxifen | – | –
